Laboratory results taken from ChEMBL document CHEMBL2311250 (Bioorg Med Chem Lett, 2013).
≈ marks a conversion by molar mass, not a printed value.

Legend:
[1] = Half life in human liver microsomes; type: ADME, Microsome
[2] = target: Inhibitor of nuclear factor kappa-B kinase subunit epsilon (Homo sapiens, UniProt Q14164); assay: Inhibition of IKKi (unknown origin) in presence of ATP
[3] = target: Tyrosine-protein kinase BTK (Homo sapiens, UniProt Q06187); assay: Inhibition of BTK (unknown origin) in presence of ATP
[4] = target: Myosin light chain kinase 2, skeletal/cardiac muscle (Homo sapiens, UniProt Q9H1R3); assay: Inhibition of MYLK2 (unknown origin) in presence of ATP
[5] = Half life in rat liver microsomes; type: ADME, Microsome
[6] = Aqueous solubility of the compound at ph 6.5; type: physicochemical
[7] = target: Serine/threonine-protein kinase 26 (Homo sapiens, UniProt Q9P289); assay: Inhibition of MASK (unknown origin) in presence of ATP
Casein kinase II = Casein kinase II (Homo sapiens, UniProt P19784+P67870+P68400); assay: Inhibition of CK2 (unknown origin) in presence of ATP; type: protein-complex assay
[8] = target: Cyclin-dependent kinase 2/cyclin A (Homo sapiens, UniProt P24941); assay: Inhibition of CDK2/cyclin A (unknown origin) in presence of ATP; type: protein-complex assay
[9] = target: Casein kinase I isoform delta (Homo sapiens, UniProt P48730); assay: Inhibition of CK1-delta (unknown origin) in presence of ATP
[10] = target: Serine/threonine-protein kinase Chk2 (Homo sapiens, UniProt O96017); assay: Inhibition of CHK2 (unknown origin) in presence of ATP
[11] = target: Serine/threonine-protein kinase 3 (Homo sapiens, UniProt Q13188); assay: Inhibition of MST2 (unknown origin) in presence of ATP
[12] = target: Fibroblast growth factor receptor 1 (Homo sapiens, UniProt P11362); assay: Inhibition of FGFR1 (unknown origin) in presence of ATP
[13] = target: Serine/threonine-protein kinase Nek2 (Homo sapiens, UniProt P51955); assay: Inhibition of NEK2 (unknown origin) in presence of ATP
[14] = target: Serine/threonine-protein kinase Chk1 (Homo sapiens, UniProt O14757); assay: Inhibition of CHK1 (unknown origin) in presence of ATP
[15] = target: Calcium/calmodulin-dependent protein kinase type 1 (Homo sapiens, UniProt Q14012); assay: Inhibition of CAMK1 (unknown origin) in presence of ATP
Ephrin type-A receptor 2 = Ephrin type-A receptor 2 (Homo sapiens, UniProt P29317); assay: Inhibition of ECK (unknown origin) in presence of ATP
CDK6/cyclin D3 = CDK6/cyclin D3 (Homo sapiens, UniProt Q00534); assay: Inhibition of CDK6/cyclin D3 (unknown origin) in presence of ATP; type: protein-complex assay
[16] = target: Tyrosine-protein kinase ABL1 (Homo sapiens, UniProt P00519); assay: Inhibition of ABL (unknown origin) in presence of ATP
[17] = target: Inhibitor of nuclear factor kappa-B kinase subunit beta (Homo sapiens, UniProt O14920); assay: Inhibition of IKK-beta (unknown origin) in presence of ATP
Aurora kinase A = Aurora kinase A (Homo sapiens, UniProt O14965); assay: Inhibition of Aurora-A (unknown origin) in presence of ATP
[18] = target: Serine/threonine-protein kinase MARK1 (Homo sapiens, UniProt Q9P0L2); assay: Inhibition of MARK1 (unknown origin) in presence of ATP
[19] = target: Mitogen-activated protein kinase 1 (Homo sapiens, UniProt P28482); assay: Inhibition of MAPK1/ERK2 (unknown origin) in presence of ATP
hERG (KCNH2) = hERG (KCNH2) (Homo sapiens, UniProt Q12809); assay: Displacement of [3H]dofetilide from human ERG at 10 uM; conditions: probe [3H]dofetilide
[20] = target: RAC-alpha serine/threonine-protein kinase (Homo sapiens, UniProt P31749); assay: Inhibition of AKT1 (unknown origin) in presence of ATP
[21] = target: Mitogen-activated protein kinase kinase kinase 9 (Homo sapiens, UniProt P80192); assay: Inhibition of MAP3K9 (unknown origin) in presence of ATP
[22] = target: Glycogen synthase kinase-3 beta (Homo sapiens, UniProt P49841); assay: Inhibition of GSK3-beta (unknown origin) in presence of ATP
[23] = target: Tyrosine-protein kinase Lck (Homo sapiens, UniProt P06239); assay: Inhibition of LCK (unknown origin) in presence of ATP
[24] = target: Tyrosine-protein kinase JAK3 (Homo sapiens, UniProt P52333); assay: Inhibition of JAK3 (unknown origin) in presence of ATP
[25] = target: Dual specificity protein kinase CLK1 (Homo sapiens, UniProt P49759); assay: Inhibition of CLK1 (unknown origin) in presence of ATP
[26] = Permeability of the compound by PAMPA; type: ADME; conditions: read-out: permeability
[27] = target: MAP kinase-activated protein kinase 2 (Homo sapiens, UniProt P49137); assay: Inhibition of MAPKAP-K2 (unknown origin) in presence of ATP
CYP2D6 = CYP2D6 (Homo sapiens, UniProt P10635); assay: Inhibition of CYP2D6 (unknown origin) at 3 uM; type: ADME

Serine/threonine-protein kinase Chk2, sequence (O96017 whole entry): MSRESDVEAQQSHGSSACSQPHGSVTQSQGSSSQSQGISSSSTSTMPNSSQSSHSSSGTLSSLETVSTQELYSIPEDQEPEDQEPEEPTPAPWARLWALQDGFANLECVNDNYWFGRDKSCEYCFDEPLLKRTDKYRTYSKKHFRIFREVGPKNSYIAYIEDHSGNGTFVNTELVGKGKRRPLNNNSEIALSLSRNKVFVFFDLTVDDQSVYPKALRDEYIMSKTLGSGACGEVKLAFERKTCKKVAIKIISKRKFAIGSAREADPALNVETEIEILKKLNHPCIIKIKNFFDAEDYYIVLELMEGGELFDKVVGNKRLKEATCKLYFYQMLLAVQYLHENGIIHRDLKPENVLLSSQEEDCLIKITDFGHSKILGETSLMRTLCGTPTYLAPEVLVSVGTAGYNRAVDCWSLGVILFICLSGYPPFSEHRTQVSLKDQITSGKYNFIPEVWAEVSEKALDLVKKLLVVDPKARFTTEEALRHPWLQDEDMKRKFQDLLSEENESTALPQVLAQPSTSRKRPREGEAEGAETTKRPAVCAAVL
Tyrosine-protein kinase BTK, sequence (Q06187 whole entry): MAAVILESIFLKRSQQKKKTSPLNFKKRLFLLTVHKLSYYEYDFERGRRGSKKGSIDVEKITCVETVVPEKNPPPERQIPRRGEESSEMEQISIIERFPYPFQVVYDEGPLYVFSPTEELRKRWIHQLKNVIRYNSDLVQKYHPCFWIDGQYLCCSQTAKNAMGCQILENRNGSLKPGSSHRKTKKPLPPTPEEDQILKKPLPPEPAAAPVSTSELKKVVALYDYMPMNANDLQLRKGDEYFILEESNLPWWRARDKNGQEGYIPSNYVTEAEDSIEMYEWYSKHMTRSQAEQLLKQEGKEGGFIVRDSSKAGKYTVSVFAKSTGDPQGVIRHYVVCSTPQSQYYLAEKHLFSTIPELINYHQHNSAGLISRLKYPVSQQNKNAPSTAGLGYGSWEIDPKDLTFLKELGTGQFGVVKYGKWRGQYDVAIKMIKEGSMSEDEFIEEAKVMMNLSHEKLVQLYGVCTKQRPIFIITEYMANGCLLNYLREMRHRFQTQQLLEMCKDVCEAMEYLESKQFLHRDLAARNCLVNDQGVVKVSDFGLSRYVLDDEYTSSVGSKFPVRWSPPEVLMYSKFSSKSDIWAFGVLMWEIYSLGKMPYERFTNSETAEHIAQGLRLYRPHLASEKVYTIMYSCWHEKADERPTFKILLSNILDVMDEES
Dual specificity protein kinase CLK1, sequence (P49759 whole entry): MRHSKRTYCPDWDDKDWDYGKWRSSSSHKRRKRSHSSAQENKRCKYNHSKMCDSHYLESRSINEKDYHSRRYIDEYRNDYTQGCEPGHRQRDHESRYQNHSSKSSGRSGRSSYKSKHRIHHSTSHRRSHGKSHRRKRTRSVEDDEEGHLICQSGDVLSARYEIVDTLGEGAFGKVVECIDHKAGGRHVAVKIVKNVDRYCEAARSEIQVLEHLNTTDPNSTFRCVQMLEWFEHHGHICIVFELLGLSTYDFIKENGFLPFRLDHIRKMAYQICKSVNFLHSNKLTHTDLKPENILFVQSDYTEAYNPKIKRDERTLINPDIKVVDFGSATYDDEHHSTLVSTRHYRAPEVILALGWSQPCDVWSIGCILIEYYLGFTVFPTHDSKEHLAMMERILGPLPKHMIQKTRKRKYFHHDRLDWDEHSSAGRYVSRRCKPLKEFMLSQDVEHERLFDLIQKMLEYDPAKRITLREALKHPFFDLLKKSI
Aurora kinase A, sequence (O14965 whole entry): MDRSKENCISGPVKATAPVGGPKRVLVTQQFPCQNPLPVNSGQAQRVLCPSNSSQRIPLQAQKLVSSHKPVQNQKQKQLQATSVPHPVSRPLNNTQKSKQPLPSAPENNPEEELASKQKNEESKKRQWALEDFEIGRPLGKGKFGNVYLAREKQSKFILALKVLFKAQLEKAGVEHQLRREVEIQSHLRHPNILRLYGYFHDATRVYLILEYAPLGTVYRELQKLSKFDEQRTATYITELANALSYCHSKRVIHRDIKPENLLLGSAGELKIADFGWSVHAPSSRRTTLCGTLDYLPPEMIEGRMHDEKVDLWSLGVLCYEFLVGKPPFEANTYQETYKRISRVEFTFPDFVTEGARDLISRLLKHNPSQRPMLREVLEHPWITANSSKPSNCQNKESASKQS
Serine/threonine-protein kinase Nek2, sequence (P51955 whole entry): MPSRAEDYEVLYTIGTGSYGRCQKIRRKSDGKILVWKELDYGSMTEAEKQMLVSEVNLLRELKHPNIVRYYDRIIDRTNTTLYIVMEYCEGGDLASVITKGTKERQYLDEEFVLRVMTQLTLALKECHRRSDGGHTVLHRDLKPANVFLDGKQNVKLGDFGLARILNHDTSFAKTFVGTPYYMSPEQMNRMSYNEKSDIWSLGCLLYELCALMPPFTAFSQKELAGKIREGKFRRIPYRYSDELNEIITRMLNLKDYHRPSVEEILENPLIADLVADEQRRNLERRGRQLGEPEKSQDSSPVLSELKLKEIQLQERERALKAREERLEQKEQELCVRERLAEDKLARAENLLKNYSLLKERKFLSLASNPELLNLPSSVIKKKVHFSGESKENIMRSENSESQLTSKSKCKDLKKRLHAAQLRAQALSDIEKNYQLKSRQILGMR
hERG (KCNH2), sequence (Q12809 whole entry): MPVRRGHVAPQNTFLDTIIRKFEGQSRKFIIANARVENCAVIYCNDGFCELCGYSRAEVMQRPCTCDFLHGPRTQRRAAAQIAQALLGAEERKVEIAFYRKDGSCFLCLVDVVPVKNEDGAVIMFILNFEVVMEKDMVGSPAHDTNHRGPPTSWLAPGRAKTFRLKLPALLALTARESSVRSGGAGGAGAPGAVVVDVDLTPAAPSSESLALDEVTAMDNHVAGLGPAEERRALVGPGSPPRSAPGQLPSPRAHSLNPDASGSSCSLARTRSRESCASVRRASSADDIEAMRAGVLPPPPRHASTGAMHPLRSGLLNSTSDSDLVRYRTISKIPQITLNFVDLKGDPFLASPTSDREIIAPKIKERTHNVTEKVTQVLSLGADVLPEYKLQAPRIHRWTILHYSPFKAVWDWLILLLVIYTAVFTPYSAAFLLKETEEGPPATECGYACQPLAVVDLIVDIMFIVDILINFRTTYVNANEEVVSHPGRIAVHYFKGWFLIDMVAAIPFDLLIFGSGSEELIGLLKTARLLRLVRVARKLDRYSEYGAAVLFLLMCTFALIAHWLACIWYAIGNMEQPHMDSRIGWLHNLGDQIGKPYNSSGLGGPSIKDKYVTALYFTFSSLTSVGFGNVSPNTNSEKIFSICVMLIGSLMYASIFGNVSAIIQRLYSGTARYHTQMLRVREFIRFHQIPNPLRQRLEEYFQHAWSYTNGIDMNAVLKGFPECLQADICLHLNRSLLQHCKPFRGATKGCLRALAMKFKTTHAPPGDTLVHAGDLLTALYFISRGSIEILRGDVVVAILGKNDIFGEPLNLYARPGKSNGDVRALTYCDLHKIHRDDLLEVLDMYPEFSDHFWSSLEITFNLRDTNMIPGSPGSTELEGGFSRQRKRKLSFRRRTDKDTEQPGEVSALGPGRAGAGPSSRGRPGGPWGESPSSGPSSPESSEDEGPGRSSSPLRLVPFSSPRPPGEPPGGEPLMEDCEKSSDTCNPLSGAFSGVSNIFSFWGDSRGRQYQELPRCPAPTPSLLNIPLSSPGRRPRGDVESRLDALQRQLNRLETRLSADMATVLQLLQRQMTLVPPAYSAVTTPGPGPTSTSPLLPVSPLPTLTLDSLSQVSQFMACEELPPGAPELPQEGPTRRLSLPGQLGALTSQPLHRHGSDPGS
Inhibitor of nuclear factor kappa-B kinase subunit beta, sequence (O14920 whole entry): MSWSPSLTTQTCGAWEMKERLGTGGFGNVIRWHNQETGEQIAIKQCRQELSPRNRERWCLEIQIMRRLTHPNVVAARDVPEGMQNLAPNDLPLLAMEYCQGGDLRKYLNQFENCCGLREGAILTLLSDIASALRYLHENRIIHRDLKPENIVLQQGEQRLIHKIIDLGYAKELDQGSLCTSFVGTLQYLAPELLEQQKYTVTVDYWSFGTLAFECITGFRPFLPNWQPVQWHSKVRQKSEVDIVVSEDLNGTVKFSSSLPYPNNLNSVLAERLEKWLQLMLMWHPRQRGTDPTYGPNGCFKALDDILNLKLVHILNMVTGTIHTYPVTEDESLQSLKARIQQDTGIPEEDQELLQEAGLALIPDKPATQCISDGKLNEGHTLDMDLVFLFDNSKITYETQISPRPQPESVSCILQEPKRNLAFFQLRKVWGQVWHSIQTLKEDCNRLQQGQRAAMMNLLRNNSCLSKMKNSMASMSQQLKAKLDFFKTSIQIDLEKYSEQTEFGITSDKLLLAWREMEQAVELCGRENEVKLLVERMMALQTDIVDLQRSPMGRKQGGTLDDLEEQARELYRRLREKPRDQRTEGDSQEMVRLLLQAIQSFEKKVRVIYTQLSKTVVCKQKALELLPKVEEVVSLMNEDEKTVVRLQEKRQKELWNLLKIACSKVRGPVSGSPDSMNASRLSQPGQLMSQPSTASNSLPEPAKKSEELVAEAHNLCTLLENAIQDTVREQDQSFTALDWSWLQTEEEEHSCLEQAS
Casein kinase I isoform delta, sequence (P48730 whole entry, canonical isoform): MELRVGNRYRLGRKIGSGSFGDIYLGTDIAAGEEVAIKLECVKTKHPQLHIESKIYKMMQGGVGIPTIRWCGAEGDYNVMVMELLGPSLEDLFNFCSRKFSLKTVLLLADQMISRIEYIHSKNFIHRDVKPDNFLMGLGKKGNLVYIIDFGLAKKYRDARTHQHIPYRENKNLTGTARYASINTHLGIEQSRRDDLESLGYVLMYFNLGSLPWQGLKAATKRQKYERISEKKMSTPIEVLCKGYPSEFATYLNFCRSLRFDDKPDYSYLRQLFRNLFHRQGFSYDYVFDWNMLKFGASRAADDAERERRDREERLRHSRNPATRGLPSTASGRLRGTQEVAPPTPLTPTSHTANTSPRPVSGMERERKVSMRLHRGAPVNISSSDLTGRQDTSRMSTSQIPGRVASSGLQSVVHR

## Cc1cc(-c2cnc(Nc3cc(Cl)cc(Cl)c3)nc2NC2CCC(N(C)C)CC2)on1 (stereo not drawn)
[1]
  half-life: 28 min
[2]
  IC50: 30 µM
[3]
  IC50: 0.95 µM
[4]
  IC50: 4.86 µM
[5]
  half-life: 6 min
[6]
  solubility: 2.3 µM (≈ 1.06 µg/mL)
[7]
  IC50: 3.84 µM
Casein kinase II
  IC50: 7.56 µM
[8]
  IC50: 1.15 µM
[9]
  IC50: 0.11 µM
[10]
  IC50: 7.97 µM
[11]
  IC50: 0.47 µM
[12]
  IC50: 1.71 µM
[13]
  IC50: 2.51 µM
[14]
  IC50: 1.37 µM
[15]
  IC50: 3.88 µM
Ephrin type-A receptor 2
  IC50: 2.43 µM
CDK6/cyclin D3
  IC50: 30 µM
[16]
  IC50: 0.81 µM
[17]
  IC50: 30 µM
Aurora kinase A
  IC50: 1.55 µM
[18]
  IC50: 1.49 µM
[19]
  IC50: 30 µM
hERG (KCNH2)
  inhibition at 10 µM: 0.35%
[20]
  IC50: 3.1 µM
[21]
  IC50: 0.16 µM
[22]
  IC50: 7.74 µM
[23]
  IC50: 0.22 µM
[24]
  IC50: 5.3 µM
[25]
  IC50: 1.63 µM
[26]
  Papp: 0.3 nm/s
[27]
  IC50: 18.6 µM
CYP2D6
  inhibition at 3 µM: 69%
